Data reported in BindingDB's records for doi:10.7270/Q2JS9NV0 (Nmmlsc, 2009).

Biological target: Ras-related C3 botulinum toxin substrate 1 (Mus musculus, UniProt P63001)
Test: wildtype Rac1 GTP binding inhibitors, SAR follow-up, biochemical, oxadiazole analogs, multiplex bead flow cytometry (AID 2027)

COc1ccc(-c2noc(CCC(=O)N3CCN(c4ccccc4F)CC3)n2)cc1 [1-[4-(2-fluorophenyl)piperazin-1-yl]-3-[3-(4-methoxyphenyl)-1,2,4-oxadiazol-5-yl]propan-1-one]
Ki: 100 nM
